# Reference: ChEMBL document CHEMBL1255419, “Pharmacokinetic-pharmacodynamic assessment of faropenem in a lethal murine Bacillus anthracis inhalation postexposure prophylaxis model” (Antimicrob Agents Chemother, 2010)
# The source made the active and inactive calls. The calls are words filed in the database; no cut-off is given here.
# Assays:
# Bacillus anthracis [1] = assay: Antibacterial activity against Bacillus anthracis Ames infected in BALB/c mouse assessed as survival rate at 20 mg/kg, ip administered 24 hrs postinfection at 6 hrs interval for 14 days measured on day 27; assay type: functional; details: route intraperitoneal
# [2] = f%TMIC in ip dosed Bacillus anthracis Ames infected BALB/c mouse model at ED99 administered 24 hrs postinfection at 4 hrs interval for 14 days measured on day 27; assay type: functional
# Bacillus anthracis [3] = assay: f%TMIC in Bacillus anthracis Ames infected pharmacokinetic-pharmacodynamic model at 0.12 ug/ml; assay type: functional
# Bacillus anthracis [4] = assay: Antibacterial activity against Bacillus anthracis Ames infected in BALB/c mouse assessed as survival rate at 40 mg/kg, ip administered 24 hrs postinfection at 12 hrs interval for 14 days measured on day 27; assay type: functional; details: route intraperitoneal
# Bacillus anthracis [5] = assay: microbe, parasite or virus in culture; assay type: functional
# [6] = Plasma protein binding in CD1 mouse at 1000 ug/ml by ultrafiltration technique; assay type: ADME, cell-free; details: read-out: PPB (converted)
# Bacillus anthracis [7] = assay: microbe, parasite or virus in culture; assay type: functional; remark: listed apart in the source
# [8] = Plasma protein binding in CD1 mouse at 5 ug/ml by ultrafiltration technique; assay type: ADME, cell-free; details: read-out: PPB (converted)
# Bacillus anthracis [9] = assay: microbe, parasite or virus in culture; assay type: functional; remark: listed apart in the source
# Bacillus anthracis [10] = assay: microbe, parasite or virus in culture; assay type: functional; remark: listed apart in the source
# Bacillus anthracis [11] = assay: microbe, parasite or virus in culture; assay type: functional; remark: listed apart in the source
# Bacillus anthracis [12] = assay: microbe, parasite or virus in culture; assay type: functional; remark: listed apart in the source
# [13] = f%TMIC in Bacillus anthracis Ames infected human model at 600 […], BID; assay type: functional
# Bacillus anthracis [14] = assay: microbe, parasite or virus in culture; assay type: functional; remark: listed apart in the source
# Bacillus anthracis [15] = assay: Antibacterial activity against Bacillus anthracis Ames infected in BALB/c mouse assessed as survival rate at 20 mg/kg, ip administered 24 hrs postinfection at 12 hrs interval for 14 days measured on day 27; assay type: functional; details: route intraperitoneal
# Bacillus anthracis [16] = assay: microbe, parasite or virus in culture; assay type: functional; remark: listed apart in the source
# Bacillus anthracis [17] = assay: microbe, parasite or virus in culture; assay type: functional; remark: listed apart in the source
# Bacillus anthracis [18] = assay: Antibacterial activity against Bacillus anthracis Ames infected in BALB/c mouse assessed as survival rate at 40 mg/kg, ip administered 24 hrs postinfection at 6 hrs interval for 14 days measured on day 27; assay type: functional; details: route intraperitoneal
# Bacillus anthracis [19] = assay: Antibacterial activity against Bacillus anthracis Ames infected in BALB/c mouse assessed as survival rate at 80 mg/kg, ip administered 24 hrs postinfection at 12 hrs interval for 14 days measured on day 27; assay type: functional; details: route intraperitoneal
# Bacillus anthracis [20] = assay: f%TMIC in Bacillus anthracis Ames infected pharmacokinetic-pharmacodynamic model at 0.25 ug/ml; assay type: functional
# Bacillus anthracis [21] = assay: Antibacterial activity against Bacillus anthracis Ames infected in BALB/c mouse assessed as survival rate at 10 mg/kg, ip administered 24 hrs postinfection at 4 hrs interval for 14 days measured on day 27; assay type: functional; details: route intraperitoneal
# Bacillus anthracis [22] = assay: microbe, parasite or virus in culture; assay type: functional; remark: listed apart in the source
# Bacillus anthracis [23] = assay: microbe, parasite or virus in culture; assay type: functional; remark: listed apart in the source
# [24] = f%TMIC in ip dosed Bacillus anthracis Ames infected BALB/c mouse model at ED90 administered 24 hrs postinfection at 4 hrs interval for 14 days measured on day 27; assay type: functional
# Bacillus anthracis [25] = assay: microbe, parasite or virus in culture; assay type: functional; remark: listed apart in the source
# Bacillus anthracis [26] = assay: microbe, parasite or virus in culture; assay type: functional; remark: listed apart in the source
# Bacillus anthracis [27] = assay: Antibacterial activity against beta-lactamase Bla1 and Bla2-producing Bacillus anthracis Sterne by broth microdilution method; assay type: functional
# Bacillus anthracis [28] = assay: Antibacterial activity against Bacillus anthracis Ames infected in BALB/c mouse assessed as survival rate at 10 mg/kg, ip administered 24 hrs postinfection at 12 hrs interval for 14 days measured on day 27; assay type: functional; details: route intraperitoneal
# Bacillus anthracis [29] = assay: microbe, parasite or virus in culture; assay type: functional; remark: listed apart in the source
# Bacillus anthracis [30] = assay: Antibacterial activity against Bacillus anthracis Ames infected in BALB/c mouse assessed as survival rate at 20 mg/kg, ip administered 24 hrs postinfection at 4 hrs interval for 14 days measured on day 27; assay type: functional; details: route intraperitoneal
# Bacillus anthracis [31] = assay: microbe, parasite or virus in culture; assay type: functional; remark: listed apart in the source
# Bacillus anthracis [32] = assay: Antibacterial activity against Bacillus anthracis Ames infected in BALB/c mouse assessed as decrease in bacterial load in lungs at 20 mg/kg, ip administered 24 hrs postinfection at 4 hrs interval for 14 days measured on day 27; assay type: functional, organism-based; parameters: dose 20 mg/kg
# Bacillus anthracis [33] = assay: microbe, parasite or virus in culture; assay type: functional; remark: listed apart in the source
# Homo sapiens [34] = species on record: Homo sapiens; assay: Plasma protein binding in human at 5 ug/ml by ultrafiltration technique; details: read-out: PPB (converted)
# Bacillus anthracis [35] = assay: microbe, parasite or virus in culture; assay type: functional; remark: listed apart in the source
# Bacillus anthracis [36] = assay: microbe, parasite or virus in culture; assay type: functional; remark: listed apart in the source
# Bacillus anthracis [37] = assay: microbe, parasite or virus in culture; assay type: functional; remark: listed apart in the source
# Bacillus anthracis [38] = assay: microbe, parasite or virus in culture; assay type: functional; remark: listed apart in the source
# Bacillus anthracis [39] = assay: microbe, parasite or virus in culture; assay type: functional; remark: listed apart in the source
# Homo sapiens [40] = species on record: Homo sapiens; assay: Plasma protein binding in human at 1000 ug/ml by ultrafiltration technique; details: read-out: PPB (converted)
# [41] = f%TMIC in ip dosed Bacillus anthracis Ames infected BALB/c mouse model at ED50 administered 24 hrs postinfection at 4 hrs interval for 14 days measured on day 27; assay type: functional
# Bacillus anthracis [42] = assay: microbe, parasite or virus in culture; assay type: functional; remark: listed apart in the source
# Bacillus anthracis [43] = assay: microbe, parasite or virus in culture; assay type: functional; remark: listed apart in the source
# Bacillus anthracis [44] = assay: microbe, parasite or virus in culture; assay type: functional; remark: listed apart in the source
# Streptococcus pneumoniae [45] = assay: Antibacterial activity against Streptococcus pneumoniae clinical isolates; assay type: functional
# Bacillus anthracis [46] = assay: Antibacterial activity against Bacillus anthracis Ames infected in BALB/c mouse assessed as survival rate at 80 mg/kg, ip administered 24 hrs postinfection at 6 hrs interval for 14 days measured on day 27; assay type: functional; details: route intraperitoneal
# Bacillus anthracis [47] = assay: microbe, parasite or virus in culture; assay type: functional; remark: listed apart in the source
# Bacillus anthracis [48] = assay: Antibacterial activity against Bacillus anthracis Ames infected in BALB/c mouse assessed as survival rate at 40 mg/kg, ip administered 24 hrs postinfection at 4 hrs interval for 14 days measured on day 27; assay type: functional; details: route intraperitoneal
# Bacillus anthracis [49] = assay: microbe, parasite or virus in culture; assay type: functional; remark: listed apart in the source
# Bacillus anthracis [50] = assay: microbe, parasite or virus in culture; assay type: functional; remark: listed apart in the source
# Bacillus anthracis [51] = assay: microbe, parasite or virus in culture; assay type: functional; remark: listed apart in the source
# Bacillus anthracis [52] = assay: Antibacterial activity against Bacillus anthracis Ames infected in BALB/c mouse assessed as survival rate at 10 mg/kg, ip administered 24 hrs postinfection at 6 hrs interval for 14 days measured on day 27; assay type: functional; details: route intraperitoneal
# Bacillus anthracis [53] = assay: f%TMIC in Bacillus anthracis Ames infected pharmacokinetic-pharmacodynamic model at 0.5 ug/ml; assay type: functional
# Bacillus anthracis [54] = assay: Antibacterial activity against Bacillus anthracis Ames infected in BALB/c mouse assessed as survival rate at 80 mg/kg, ip administered 24 hrs postinfection at 4 hrs interval for 14 days measured on day 27; assay type: functional; details: route intraperitoneal
# Streptococcus pneumoniae [55] = assay: f%TMIC in Streptococcus pneumoniae infected pharmacokinetic-pharmacodynamic model; assay type: functional
structure (smiles),measurement,setting,value
Cc1oc(=O)oc1COC(=O)C1=C([C@H]2CCCO2)S[C@@H]2[C@@H]([C@@H](C)O)C(=O)N12 [FAROPENEM MEDOXOMIL],survival at 20 mg/kg,Bacillus anthracis [1],60%
same,fT>MIC,[2],16.4%
same,fT>MIC,Bacillus anthracis [3],51%
same,survival at 40 mg/kg,Bacillus anthracis [4],20%
same,MIC,Bacillus anthracis [5],0.12 µg/mL
same,fraction unbound at 1000 ug/ml,[6],0.82
same,MIC,Bacillus anthracis [7],0.12 µg/mL
same,fraction unbound at 5 ug/ml,[8],0.15
same,MIC,Bacillus anthracis [9],≤ 0.06 µg/mL
same,MIC,Bacillus anthracis [10],≤ 0.06 µg/mL
same,MIC,Bacillus anthracis [11],≤ 0.06 µg/mL
same,MIC,Bacillus anthracis [12],0.12 µg/mL
same,fT>MIC,[13],62%
same,MIC,Bacillus anthracis [14],0.12 µg/mL
same,survival at 20 mg/kg,Bacillus anthracis [15],10%
same,MIC,Bacillus anthracis [16],0.25 µg/mL
same,MIC,Bacillus anthracis [17],0.12 µg/mL
same,survival at 40 mg/kg,Bacillus anthracis [18],90%
same,survival at 80 mg/kg,Bacillus anthracis [19],22.2%
same,fT>MIC,Bacillus anthracis [20],44%
same,survival at 10 mg/kg,Bacillus anthracis [21],77.8%
same,MIC,Bacillus anthracis [22],> 64 µg/mL
same,MIC,Bacillus anthracis [23],0.25 µg/mL
same,fT>MIC,[24],13.4%
same,MIC,Bacillus anthracis [25],≤ 0.06 µg/mL
same,MIC,Bacillus anthracis [26],≤ 0.06 µg/mL
same,MIC,Bacillus anthracis [27],≤ 0.06 µg/mL
same,survival at 10 mg/kg,Bacillus anthracis [28],0%
same,MIC,Bacillus anthracis [29],0.12 µg/mL
same,survival at 20 mg/kg,Bacillus anthracis [30],80%
same,MIC,Bacillus anthracis [31],0.12 µg/mL
same,inhibition,Bacillus anthracis [32],Active
same,MIC,Bacillus anthracis [33],≤ 0.06 µg/mL
same,fraction unbound at 5 ug/ml,Homo sapiens [34],0.1
same,MIC,Bacillus anthracis [35],0.25 µg/mL
same,MIC,Bacillus anthracis [36],≤ 0.06 µg/mL
same,MIC,Bacillus anthracis [37],0.12 µg/mL
same,MIC,Bacillus anthracis [38],0.06 µg/mL
same,MIC,Bacillus anthracis [39],1 µg/mL
same,fraction unbound at 1000 ug/ml,Homo sapiens [40],0.787
same,fT>MIC,[41],10.6%
same,MIC,Bacillus anthracis [42],≤ 0.06 µg/mL
same,MIC,Bacillus anthracis [43],0.12 µg/mL
same,MIC,Bacillus anthracis [44],0.25 µg/mL
same,MIC,Streptococcus pneumoniae [45],0.008 µg/mL
same,survival at 80 mg/kg,Bacillus anthracis [46],90%
same,MIC,Bacillus anthracis [47],0.12 µg/mL
same,survival at 40 mg/kg,Bacillus anthracis [48],80%
same,MIC,Bacillus anthracis [49],0.5 µg/mL
same,MIC,Bacillus anthracis [50],0.12 µg/mL
same,MIC,Bacillus anthracis [51],0.12 µg/mL
same,survival at 10 mg/kg,Bacillus anthracis [52],30%
same,fT>MIC,Bacillus anthracis [53],32%
same,survival at 80 mg/kg,Bacillus anthracis [54],100%
same,fT>MIC,Streptococcus pneumoniae [55],13.9%
